The melting point is the temperature of the solid-liquid transition. For `CC(=O)NNc1ccc(Cl)c(Cl)c1`, the melting point was in the range of 179 to 182 °C.
To `c1ccc(N2c3ccccc3[C@@H]3CNCC[C@H]32)cc1` belongs 74 to 76 °C.
In the case of `CCn1cc(C(=O)O)c(=O)c2cc(F)c(N3CC(C)C(CN)C3)c(F)c21` (stereo not given) it was 222 to 224 °C.
`COC(=O)C1=C(C)Nc2ccccc2SC1c1ccc([N+](=O)[O-])cc1` (stereo not given) came in with a melting point of 150 to 152 °C.
To `COc1ccc(C2C(=O)OC3=CC(O)(OC(C)=O)C=CC3=C2C)c(OC)c1` (stereo not given) belongs 146 to 148 °C.
Consider `COC1=C(C(=O)c2ccc(OC)cc2)C(c2ccc(C(C)(C)C)cc2)N(c2nnc(C)s2)C1=O` (stereo not given), for which the melting point was in the range of 235 to 237 °C.
To `CCCCCCCCc1ccc(OCC(O)Cn2cccn2)cc1` (stereo not given) belongs 88 °C.
In turn, `CC1CC(=O)Nc2ccc(Br)cc21` (stereo not given) registered a melting point of 190 °C.
For `Cn1ncc2[nH]c3ccc(Cc4ccccc4)cc3c(=O)c21`, the melting point was determined as 282 °C.
To `COc1ccc(-c2nnc(NC3CCN(Cc4ccc(C(=O)O)cc4)CC3)c3cc(OC)ccc23)cc1` belongs 295 °C; to `CCCn1c(=O)nc(Sc2ccc(Cl)cc2)sc1=S`, 151 to 152 °C.
To `Clc1cnn(CCCCN2CCN(c3ccccc3)CC2)c1` belongs 58 to 61 °C; to `CCN(CC)C(=O)c1c(CO)cccc1[Si](C)(C)C`, 81 to 82.5 °C; to `CCOC(=O)c1cnn2c(-c3ccsc3)ccnc12`, 129 to 130 °C.
The molecule `CCC(=O)c1ccc(CCNS(=O)(=O)c2ccccc2)cc1` gave a melting point of 116 °C.
In the case of `CCc1c(-c2ccc(OCc3ccccc3)cc2)c2c(C(=O)N(C)C)c(C(=O)O)c3cccc1n32` it was 236 to 238 °C.
In the case of `Cc1cc(-c2ccc(C(F)(F)F)cc2)cn2c(C(=O)O)cnc12` it was 211 °C; in that of `CSCC(C)(C)NC(=O)c1c(I)cccc1Oc1ccc(Cl)cc1C`, 128 to 130 °C.
The molecule `CCCCCS(=O)(=O)NC(=O)C(C)Cc1ccc(OCCOC)cc1Oc1ncc(C(F)(F)F)cc1Cl` (stereo not given) yielded a melting point of 136 to 138 °C.
In turn, `CCOC(=O)c1cc(CC(C)(C)NC(=O)OC(C)(C)C)n(CCOC)n1` returned a melting point of 92 to 93 °C.
To `COc1nccnc1C1(Cl)CN2CCC1CC2` (stereo not given) belongs 59 to 60 °C; to `CN1CCN(C(=O)CCS)C(C(=O)O)C1` (stereo not given), 75 to 79 °C.
In the case of `CCOC(=O)c1ccc(/C=C/c2ccc(O)c(C3(C)CCCCC3)c2)cc1` it was 149 °C.
On to `CC(=O)NNc1ccc(-n2c(-c3ccccc3)csc2=S)cc1`, for which the melting point is 230 to 232 °C.
To `COC(=O)c1ccsc1S(=O)(=O)Cl` belongs 51 to 54 °C; to `O=C1COc2cc(F)c(N3N=C4CCCCC4C3=O)cc2N1Cc1ccccn1` (stereo not given), 216 to 219 °C.
`Cn1ccc(C(=O)c2ccc(O)c(Cl)c2Cl)n1` displayed a melting point of 220 to 222 °C.
Consider `CCOC(=O)C1=C(CS(=O)CCN)NC(C)=C(C(=O)OC)C1c1cccc([N+](=O)[O-])c1` (stereo not given), for which the melting point lay in the range of 170 to 172 °C.
For `CC(=O)Oc1c(C)cc(C)cc1CCc1cc(C)cc(C)c1OC(C)=O`, the melting point was 130 to 131 °C.
`O=C(O)CCCCCCCCCNS(=O)(=O)c1ccc(Cl)cc1` came in with a melting point of 192 to 194 °C.
To `COC(=O)CS(=O)CCCCCn1nc(-c2ccccc2)c(-c2ccccc2)c1-c1ccccc1` (stereo not given) belongs 108 to 109 °C; to `Cc1nnc(-c2ccc3occ(-c4ccc(OS(C)(=O)=O)cc4)c3c2)o1`, 139 to 140 °C; to `Cc1ccc(-c2c(C)ccn2-c2ccc(S(C)(=O)=O)cc2)cc1`, 158 to 160 °C.
`CCCOC(C)c1ccc(O)cc1` (single isomer, unassigned; (+)) displayed a melting point of 61 to 63 °C.
`CCCCCCCCCCCCCCCC(=O)Nc1cscc1NC(=O)CCCCCCCCCCCCCCC`: the melting point lay within 107 to 109 °C.
In the case of `CC(C)c1cn2cccc(C=O)c2n1` it was 70 to 72 °C; in that of `COC(=O)c1cc2ccc(C)cc2n1C(C)=O`, 51 to 53 °C.
`COC(=O)C1=C(c2ccccc2)NC(C)=C(C(=O)OC(C)C)C1c1cccc([N+](=O)[O-])c1` (stereo not given) returned a melting point of 184 to 186 °C.
In the case of `COc1cc(C(F)(F)F)oc(=O)c1` it was 61 °C.
To `CCOC(=O)c1nc2c(=O)[nH]c3cc(C(F)(F)F)ccc3n2c1CN1CCN(C)CC1` belongs 255 °C.
To `CC(C)C[C@H](NC(=O)COc1ccccc1)C(=O)N[C@@H](C(C)C)[C@H](O)c1c(-c2ccc(F)cc2)c1=O` belongs 75 to 79 °C; to `CCCCc1nnc2c(NC3CCCC3)nc3ccccc3n12`, 195 to 197 °C; to `CCCCOC1OC(CO)C(O)C(O)(N(CC2CCCCC2)C(=O)N(CCCl)N=O)C1O` (stereo not given), 75 to 77 °C.
`CCc1cc(=O)c2cc(C(C)CO)ccc2o1` (stereo not given) showed a melting point of 59.5 to 60.5 °C.
To `CCOC(=O)C(=O)Nc1cc(Cl)c(Cl)cc1[N+](=O)[O-]` belongs 96 to 97 °C.
In the case of `O=C(O)C(=O)c1ccc(OCCOc2ccc3ccncc3c2)cc1` it was 260 °C; in that of `CC1(C)NC(=O)N(CC(O)Cc2cc(C(C)(C)C)c(O)c(C(C)(C)C)c2)C1=O` (stereo not given), 175 to 176 °C.
For the molecule `CC(=NOCCOc1ccc(CC2SC(=O)NC2=O)cc1)c1ccc(-c2ccccc2)cn1` (stereo not given), the melting point was in the range of 136 to 138 °C.
In turn, `CC(C)(C)c1ccc(C=CC2=CC(c3ccc(C(C)(C)C)cc3)N(c3ccccc3)N2)cc1` (stereo not given) came in with a melting point of 188 to 192 °C.
To `CCOC(=O)CC(=O)Nc1cccc2ccccc12` belongs 80 to 81 °C; to `Cc1c(C)n(CC(F)(F)F)c2c(OCc3ccccc3)nncc12`, 83 to 84 °C.
`CCN(CC)c1ccc(NC(=O)N(C[C@@H]2CCC[C@H](CN(C(=O)Nc3ccc(N(CC)CC)cc3)C3CCCCC3)C2)C2CCCCC2)cc1` registered a melting point of 170 to 172 °C.
In the case of `CCOC(=O)c1coc2ccc(-c3nnc(C)o3)cc12` it was 135 to 136 °C.
Molecule `CC(C)N(CCCCOCC(=O)O)c1nc(-c2ccccc2)c(-c2ccccc2)nc1Cl` had a melting point of 136 to 138 °C.
Molecule `Cc1ccc(-c2nn(CCO)c(=O)c(-c3ccccc3)c2-c2ccc(C)cc2)cc1` yielded a melting point of 192 to 194 °C.
Take `Nc1ccccc1Oc1ncc(C(F)(F)F)cc1Cl`: the melting point is 133 to 135 °C.
To `Oc1nc(O)c2c(n1)CCCS2` belongs > 300 °C; to `CCC(C#N)c1ccc(Cl)c2nc3n(c12)CCCN3c1ccc(Cl)cc1Cl` (stereo not given), 220 to 221 °C; to `CC(C)CC1=CC(c2cccc([N+](=O)[O-])c2)C2=C(CCCC2=O)N1` (stereo not given), 158 to 160 °C.
The molecule `COC(=O)C1Cc2c(ncn2Cc2ccc(N)c(C)c2)CN1C(=O)C(c1ccccc1)c1ccccc1` (stereo not given) came in with a melting point of 182 to 188 °C.
In the case of `CC1(C)C(C=C(Cl)Cl)C1(C#N)C(=O)O` (stereo not given) it was 128 to 132 °C.
Regarding `Nn1c(-c2cncc(Cl)c2)cc2ccccc21`, the melting point lay in the range of 154 to 156 °C.
To `Nc1cccnc1Nc1cccc(-c2cccnc2)c1` belongs 159 to 160 °C; to `CCC1C(C)=NN=C(c2ccccc2C)c2cc(OC)c(OC)cc21` (stereo not given), 170 to 171 °C; to `CCOP(=O)(OCC)C1C(=O)NC(=O)N1C` (stereo not given), 95 to 96 °C.
In the case of `c1ccc(-n2c(Cn3ccnc3)nc3ccccc32)cc1` it was 116 to 117 °C.
Molecule `CSc1nc(Cl)c(Cc2ccccc2)c(N2CCCC2)n1` displayed a melting point of 97 to 99 °C.
In the case of `CC(C)(C)NS(=O)(=O)c1cnc(-c2cn(-c3cc(-c4ccc(C(F)(F)F)cc4)cc(C(F)(F)F)n3)cn2)s1` it was 252 °C; in that of `CCOC(=O)c1c(C(C)C)c2ccccn2c1-c1ccc(F)cc1`, 51 to 52 °C; in that of `O=C(NN=C(c1ccccc1)c1ccncc1)c1cccnc1`, 74 °C.
As to `O=C(Nc1ccc(C(=O)N2CCC=Cc3ccccc32)cc1)c1ccccc1Cl`, the melting point lay within 205 to 207 °C.
In the case of `OCCOc1ccc(O)c(Cl)c1` it was 76 to 82 °C; in that of `CN(C)C(=O)C1(N2C(=O)c3cccc(Cl)c3C2=O)CCCCC1`, 135 to 137 °C.
Turning to `CCCc1cc(=O)n2cccc(O)c2n1`, the melting point fell in the range of 95 to 96 °C.
To `Cc1cn2nc(S(=O)(=O)Cl)nc2nc1C` belongs 116 to 120 °C; to `Cc1ccc(-c2nc(COc3ccc(CCCn4ccnc4)cc3)co2)o1`, 109 to 110 °C; to `Cc1nc2ccccc2n1Cc1ccc(C(=O)NC2CCN(C(=O)OC(C)(C)C)CC2)cc1`, 77 to 79 °C.
To `CC(C)(C)OC(=O)NCCNC(=O)c1nocc1-c1ccccc1` belongs 170 to 171 °C; to `CCCN(CCC)C(=O)CNc1nc(-c2ccccc2)nc(C)c1C`, 79 to 80 °C.
In the case of `O=C(O)c1ccc(OC2=C3N=C4CCCCC4=C3C(Cc3ccc(Br)cc3)C=C2)o1` (stereo not given) it was 156 to 158 °C; in that of `O=[N+]([O-])c1ccc(C=Cc2nccn2Cc2ccccn2)o1`, 141 to 142 °C; in that of `CCCOC(=O)C=Nc1cc(Cl)ccc1C(=O)O`, 155 °C.
Turning to `COC(=O)CCCC(=O)Nc1ccc(C(=O)NN=C2C(=O)Nc3ccc(I)cc32)cc1`, the melting point stood at 282 °C.
To `COC(=O)CCCc1cc2cc(Cl)ccc2n1S(=O)(=O)c1ccccc1` belongs 109 to 112 °C.
In the case of `COC(=O)Nc1cccc2c1C(=O)c1c-2n[nH]c1-c1ccc(OC)cc1`, the melting point is > 300 °C.
To `C#CCN(Cc1ccc2nc[nH]c(=O)c2c1)c1ccc(C(C)=O)cc1` belongs 197 to 199 °C.
In the case of `CCCC(=O)CS(N)(=O)=O` it was 117 °C; in that of `CC(C)C(=O)N1N=Cc2ccccc2C1C#N` (stereo not given), 144 to 146 °C; in that of `CC(C)NC1=NS(=O)(=O)c2ccc(F)cc2N1`, 266 to 269 °C.
`O=C(Nc1cccc(S(=O)(=O)C(F)(F)F)c1)c1cnn2c(C(F)(F)F)cc(-c3ccc(C(F)(F)F)cc3)nc12` showed a melting point of 207 °C.
